Measurements as given in patent publication US4959393A, “Skin depigmental agent” (priority 1988, dated 1990).
Read-outs that look alike come from different tables or passages of the source.

Tests used:
[1] = tested on: tyrosinase; experiment: Measurement of Tyrosine Hydroxylation Activity (formation of dopa from tyrosine); assay type: biochemical; details: L-tyrosine 1×10^-4 M; 200 units mushroom tyrosinase; absorbance at 280 nm; control 1.83
From the text: (§1) Tyrosinase is a copper-containing enzyme which controls synthesis of melanin from starting tyrosine. This enzyme is considered to act as a catalyst for the formation of dopa, dopaquinone and indole-5,6-quinone which are, respectively, intermediates for the synthesis of melanin. We measured activities of the resorcinol derivatives of the formula (1) on inhibition of the formation reactions of the former two intermediates, i.e. the formation reaction of dopa (tyrosine hydroxylase) from tyrosine and the formation reaction of dopa quinone (dopa oxidase) from the dopa. From this, the activity on the tyrosinase activity inhibition was determined.
(1) Measurement of Tyrosine Hydroxylation Activity
(§2) The presence or absence of UV absorptions of the substrate and the substance to be detected was confirmed, after which […] of tyrosinase (Mushroom, 200 units, made by Sigma Co., Ltd.) was added for starting the reaction. The variation in absorbance at 280 nm which is a maximum absorption of L-dopa was measured. The tyrosine hydroxylation activity was indicated a nmol dopa/min/mg of protein. The amount of the protein was measured according to Lowry's method.

[2] = tested on: skin; details: cited from earlier work
[3] = tested on: tyrosinase; experiment: Measurement of Dopa Oxidation Activity (formation of dopa quinone from dopa); assay type: biochemical, Mushroom; details: L-dopa 5×10^-3 M; 10 units tyrosinase; 475 nm; control 15.80
From the text: as §1, §2
(2) Measurement of Dopa Oxidation Activity
The general procedure of Measurement (1) was repeated except that L-dopa (5×10^-3 M) was used as a that produced dopa chrome was measured at a wavelength of 475 nm, and that 10 units of tyrosinase were used.
The dopa oxidation activity was indicated as μmol of dopa chrome/min/mg of protein.

[4] = in vivo; details: mouse, ddy male mice
Experimental: The life or death of the mice before 24 hours was observed. The value of LD50 was calculated according to the Litchfield-Wilcoxom method using the above results.

[5] = tested on: salmonella typhimuria; details: Ames test using salmonella typhimuria
[6] = ip, intraperitoneal, read-out: LD50 i.p.
[7] = po, peroral, read-out: LD50 p.o.
[8] = sc, subcutaneous, read-out: LD50 s.c.

| Structure (SMILES) | Activity (tyrosine hydroxylation activity) [1] | Activity (dopa oxidation activity) [3] | also measured |
| --- | --- | --- | --- |
| CCCCCCc1ccc(O)cc1O [Experiment 4] | 0.00 nmol dopa/min/mg of protein |  |  |
| CCCCCCCCCCCCc1ccc(O)cc1O [Experiment 6] | 0.33 nmol dopa/min/mg of protein |  |  |
| N[C@@H](CS)C(=O)O [cysteine] |  |  | depigmental effect [2]: do not exhibit a satisfactory depigmental effect since the development of the effect is very slow |
| CCCCCCc1ccc(O)cc1O [drawing 16] |  |  | LD50 at 24 h [4, 6]: 335 mg/kg; LD50 at 24 h [4, 7]: > 500 mg/kg; LD50 at 24 h [4, 8]: > 500 mg/kg |
| N[C@@H](CCC(=O)N[C@@H](CS)C(=O)NCC(=O)O)C(=O)O [glutathione] |  |  | depigmental effect [2]: do not exhibit a satisfactory depigmental effect since the development of the effect is very slow |
| CC(C)CCc1ccc(O)cc1O [drawing 17] |  |  | LD50 at 24 h [4, 6]: 269 mg/kg; LD50 at 24 h [4, 7]: > 500 mg/kg; LD50 at 24 h [4, 8]: > 500 mg/kg |
| CC(C)CCc1ccc(O)cc1O [Experiment 3] | 0.00 nmol dopa/min/mg of protein |  |  |
| CC(C)CCc1ccc(O)cc1O [Isoamyl resorcinol, 4-Isoamyl resorcinol] |  |  | variability (Ames test) [5]: no variability |
| CC(C)CCc1ccc(O)cc1O [Experiment 9] |  | 0.00 μmol of dopa chrome/min/mg of |  |
| CCCCCCCCCCCCc1ccc(O)cc1O [Experiment 12] |  | 7.19 μmol of dopa chrome/min/mg of |  |
| Oc1ccc(O)cc1 [hydroquinone, reference compound] | 0.00 nmol dopa/min/mg of protein | 26.94 μmol of dopa chrome/min/mg of |  |
| CCCCCCc1ccc(O)cc1O [Experiment 10] |  | 0.00 μmol of dopa chrome/min/mg of |  |

Further lines, with some results ahead:

| Activity (tyrosine hydroxylation activity) [1] | Activity (dopa oxidation activity) [3] | Structure (SMILES) | also measured |
| --- | --- | --- | --- |
|  | 16.81 μmol of dopa chrome/min/mg of | Cc1ccc(O)cc1O [drawing 15, reference compound] |  |
| 0.00 nmol dopa/min/mg of protein |  | CCc1ccc(O)cc1O [drawing 2] |  |
| 1.78 nmol dopa/min/mg of protein |  | Cc1ccc(O)cc1O [Comparative Experiment 1, reference compound] |  |
| 0.00 nmol dopa/min/mg of protein |  | CCCCc1ccc(O)cc1O [Experiment 2] |  |
|  | 0.00 μmol of dopa chrome/min/mg of | CCCCc1ccc(O)cc1O [Experiment 8] |  |
| 0.00 nmol dopa/min/mg of protein |  | CCCCCCCCc1ccc(O)cc1O [Experiment 5] |  |
|  | 0.00 μmol of dopa chrome/min/mg of | CCCCCCCCc1ccc(O)cc1O [Experiment 11] |  |
|  | 7.44 μmol of dopa chrome/min/mg of | CCc1ccc(O)cc1O [Experiment 7] |  |
